37 molecules from US20240336574A1 (LATIGO BIOTHERAPEUTICS, INC., priority 2021, published 2024) can be followed below.

Read-outs that look alike come from different tables or passages of the source.

The target in this assay is T1, recombinant human NaV1.8 stably transfected HEK cells (Homo sapiens, UniProt Q9Y5Y9).
T1 construct: expressed in transfected cells; host or cells: HEK cells, stably transfected
The assay can be described thus: Compound profiling on NaV1.8, human NaV1.8 cell line, SyncroPatch384PE automated patch clamp assay (Example 102, first set of compounds, Table 16). The class given is cell-based. Conditions: human NaV1.8 HEK cells, Table 16 (first set of compounds). In a few lines: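 Automated whole-cell patch clamp on HEK cells precultured at 30 °C one day before recording; CsF-based internal, 140 mM NaCl external. 10-point curve, 20–0.001 μM final, 0.1% DMSO, 5 min exposure. IC50 for resting (P1, −120 mV hold) and inactivated (P2, after 10 s at −40 mV) block, normalized to 250 μM tetracaine and DMSO.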
For orientation: Patch clamp records ionic current or voltage across a cell membrane.

The mark [1] stands for this setting: inactivated state block (P2 measurement), read-out: P2IC50.
The mark [2] stands for this setting: resting state block (P1 measurement), read-out: P1IC50.

T1 sequence (Q9Y5Y9 whole entry): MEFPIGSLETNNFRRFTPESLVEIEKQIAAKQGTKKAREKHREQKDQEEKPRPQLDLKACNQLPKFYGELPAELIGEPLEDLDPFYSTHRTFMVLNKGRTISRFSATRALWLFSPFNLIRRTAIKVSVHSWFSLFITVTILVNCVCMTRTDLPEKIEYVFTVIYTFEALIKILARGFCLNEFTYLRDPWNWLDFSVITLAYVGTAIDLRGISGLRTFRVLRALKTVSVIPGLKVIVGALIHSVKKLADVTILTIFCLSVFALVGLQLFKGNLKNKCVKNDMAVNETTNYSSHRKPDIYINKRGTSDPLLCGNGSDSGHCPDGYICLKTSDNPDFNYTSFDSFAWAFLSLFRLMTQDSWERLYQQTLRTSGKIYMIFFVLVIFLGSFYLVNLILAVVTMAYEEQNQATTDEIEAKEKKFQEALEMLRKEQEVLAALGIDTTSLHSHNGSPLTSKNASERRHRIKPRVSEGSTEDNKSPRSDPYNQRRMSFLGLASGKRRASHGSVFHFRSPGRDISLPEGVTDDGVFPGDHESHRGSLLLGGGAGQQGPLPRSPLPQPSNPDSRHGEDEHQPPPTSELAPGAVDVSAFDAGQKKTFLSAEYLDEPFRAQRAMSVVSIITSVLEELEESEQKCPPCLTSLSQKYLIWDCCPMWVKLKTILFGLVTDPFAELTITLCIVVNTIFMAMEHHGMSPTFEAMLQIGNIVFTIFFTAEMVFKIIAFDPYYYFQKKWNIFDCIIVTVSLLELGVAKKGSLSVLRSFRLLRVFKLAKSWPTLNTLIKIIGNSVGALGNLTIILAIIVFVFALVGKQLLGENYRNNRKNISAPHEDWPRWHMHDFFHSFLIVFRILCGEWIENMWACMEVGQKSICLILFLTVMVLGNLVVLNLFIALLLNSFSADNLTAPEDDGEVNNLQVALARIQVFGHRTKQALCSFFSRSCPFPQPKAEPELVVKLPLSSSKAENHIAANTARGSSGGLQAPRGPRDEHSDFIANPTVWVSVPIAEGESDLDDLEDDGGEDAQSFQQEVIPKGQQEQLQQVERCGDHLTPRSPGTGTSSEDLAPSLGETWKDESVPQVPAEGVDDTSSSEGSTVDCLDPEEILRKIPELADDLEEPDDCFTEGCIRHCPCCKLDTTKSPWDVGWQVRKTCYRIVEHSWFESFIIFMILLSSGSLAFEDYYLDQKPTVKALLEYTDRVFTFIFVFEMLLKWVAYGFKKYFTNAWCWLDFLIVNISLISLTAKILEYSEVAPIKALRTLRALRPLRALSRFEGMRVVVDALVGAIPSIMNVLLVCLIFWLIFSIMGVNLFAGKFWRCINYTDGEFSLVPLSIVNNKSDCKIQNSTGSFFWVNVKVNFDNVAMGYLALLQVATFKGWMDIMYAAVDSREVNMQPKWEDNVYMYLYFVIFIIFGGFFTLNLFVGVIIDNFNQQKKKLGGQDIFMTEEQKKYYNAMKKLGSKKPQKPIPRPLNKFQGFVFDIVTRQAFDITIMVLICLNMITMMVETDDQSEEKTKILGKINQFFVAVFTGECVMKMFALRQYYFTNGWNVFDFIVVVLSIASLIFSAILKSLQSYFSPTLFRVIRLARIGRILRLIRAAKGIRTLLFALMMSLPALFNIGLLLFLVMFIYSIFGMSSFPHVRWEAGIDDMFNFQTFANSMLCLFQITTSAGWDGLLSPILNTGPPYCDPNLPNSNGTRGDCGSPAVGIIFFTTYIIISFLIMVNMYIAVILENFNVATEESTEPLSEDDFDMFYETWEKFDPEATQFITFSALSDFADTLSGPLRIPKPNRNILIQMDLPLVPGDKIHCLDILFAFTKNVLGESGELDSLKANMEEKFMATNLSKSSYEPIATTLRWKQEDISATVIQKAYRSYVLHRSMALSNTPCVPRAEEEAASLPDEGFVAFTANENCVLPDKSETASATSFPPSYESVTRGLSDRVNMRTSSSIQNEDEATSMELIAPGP

On to `COc1c(Oc2ncc(Br)cc2C(=O)Nc2ccc(C(N)=O)cc2)ccc(F)c1F` [Compound 1569, 5-bromo-N-(4-carbamoylphenyl)-2-(3,4-difluoro-2-methoxy-phenoxy)pyridine-3-carboxamide], for which the IC50 under setting [1] was at most 20 nM and the IC50 under setting [2] was at most 20 nM.

`Cc1cc(OC(F)(F)F)ccc1Oc1ncc(C(F)(F)F)cc1C(=O)Nc1cccc(S(C)(=O)=O)c1` [Compound 1573, N-(3-methylsulfonylpheny1)-2-[2-methyl-4-(trifluoromethoxy)phenoxy]-5-(trifluoromethyl)pyridine-3-carboxamide]: the IC50 runs as follows: under setting [1], at most 20 nM; under setting [2], at most 20 nM.

With `Cc1cc(F)ccc1Oc1ncc(C(F)(F)F)cc1C(=O)Nc1cccc(S(C)(=O)=O)c1` [Compound 1574, 2-(4-fluoro-2-methyl-phenoxy)-N-(3-methylsulfonylphenyl)-5-(trifluoromethyl)pyridine-3-carboxamide], the IC50 is, setting by setting: under setting [1], at most 20 nM; under setting [2], at most 20 nM.

`COc1cc(F)ccc1Oc1ncc(C(F)(F)F)cc1C(=O)Nc1cccc(S(C)(=O)=O)c1` [Compound 1575]: the IC50 is, setting by setting: under setting [1], at most 20 nM; under setting [2], at most 20 nM.

With `COc1cc(F)ccc1Oc1ncc(C(F)(F)F)cc1C(=O)Nc1cc(S(C)(=O)=O)ccc1F` [Compound 1576], the IC50 under setting [1] was in the range of 40 to 200 nM and the IC50 under setting [2] lay within 40 to 200 nM.

Turning to `CSc1cccc(NC(=O)c2cc(Br)cnc2Oc2ccc(F)cc2C)c1` [Compound 1577], the IC50 by setting is: under setting [1], 200 to 500 nM; under setting [2], 200 to 500 nM.

In the case of `Cc1cc(F)ccc1Oc1ncc(C#N)cc1C(=O)Nc1cccc(S(C)(=N)=O)c1` (centres unmarked) [Compound 1578], the IC50 runs as follows: under setting [1], 200 to 500 nM; under setting [2], 200 to 500 nM.

Turning to `CSc1cccc(NC(=O)c2cc(C#N)cnc2Oc2ccc(F)cc2C)c1` [Compound 1579], the IC50 under setting [1] fell in the range of 200 to 500 nM and the IC50 under setting [2] was in the range of 200 to 500 nM.

With `CS(=O)(=O)c1cccc(NC(=O)c2cc(C(F)(F)F)cnc2Oc2cncc3ccccc23)c1` [Compound 1581], the IC50 lay in the range of 200 to 500 nM under setting [1] and 200 to 500 nM under setting [2].

With `CS(=O)(=O)c1cccc(NC(=O)c2cc(C(F)(F)F)cnc2Oc2cnc(Cl)c3ccccc23)c1` [Compound 1582], the IC50 under setting [1] was 200 to 500 nM and the IC50 under setting [2] was in the range of 200 to 500 nM.

Consider `CS(=O)(=O)c1cccc(NC(=O)c2cc(C(F)(F)F)cnc2Oc2ccc(F)c3cnccc23)c1` [Compound 1583], for which the IC50 is, setting by setting: under setting [1], 20 to 40 nM; under setting [2], 20 to 40 nM.

Turning to `CS(=N)(=O)c1cccc(NC(=O)c2cc(C(F)(F)F)cnc2Oc2ccc(-c3ccccc3)cc2)c1` (centres unmarked) [Compound 1585], the IC50 by setting is: under setting [1], 200 to 500 nM; under setting [2], 200 to 500 nM.

As to `CS(=N)(=O)c1cccc(NC(=O)c2cc(C(F)(F)F)cnc2Oc2ccc(-n3ccnc3)cc2)c1` (centres unmarked) [Compound 1586], the IC50 is 200 to 500 nM under setting [1] and 200 to 500 nM under setting [2].

As to `CS(=N)(=O)c1cccc(NC(=O)c2cc(C(F)(F)F)cnc2Oc2ccc(OCc3ccccc3)cc2)c1` (centres unmarked) [Compound 1587], the IC50 under setting [1] lay in the range of 40 to 200 nM and the IC50 under setting [2] was 40 to 200 nM.

In the case of `CS(=N)(=O)c1cccc(NC(=O)c2cc(C(F)(F)F)cnc2Oc2ccc(OC3CC3)cc2)c1` (centres unmarked) [Compound 1588], the IC50 is, setting by setting: under setting [1], 40 to 200 nM; under setting [2], 40 to 200 nM.

In the case of `Cc1nc(F)ccc1Oc1ncc(C(F)(F)F)cc1C(=O)Nc1cccc(S(C)(=N)=O)c1` (centres unmarked) [Compound 1589], the IC50 by setting is: under setting [1], 40 to 200 nM; under setting [2], 40 to 200 nM.

In the case of `Cc1nn(C)cc1Oc1ncc(C(F)(F)F)cc1C(=O)Nc1cccc(S(C)(=N)=O)c1` (centres unmarked) [Compound 1590], the IC50 runs as follows: under setting [1], 200 to 500 nM; under setting [2], 200 to 500 nM.

As for `COc1ccc(Oc2ncc(C(F)(F)F)cc2C(=O)Nc2cccc(S(C)(=N)=O)c2)cc1C#N` (centres unmarked) [Compound 1591], the IC50 is, setting by setting: under setting [1], 200 to 500 nM; under setting [2], 200 to 500 nM.

As for `COc1cc(C#N)cc(Oc2ncc(C(F)(F)F)cc2C(=O)Nc2cccc(S(C)(=N)=O)c2)c1` (centres unmarked) [Compound 1592], the IC50 fell in the range of 200 to 500 nM under setting [1] and 200 to 500 nM under setting [2].

Consider `Cc1cc(C(F)(F)F)ccc1Oc1ncc(C(F)(F)F)cc1C(=O)Nc1cccc(S(C)(=O)=O)c1` [Compound 1595], for which the IC50 was at most 20 nM under setting [1] and 20 to 40 nM under setting [2].

`Cc1cc(F)ccc1COc1ncc(C(F)(F)F)cc1C(=O)Nc1cccc(S(C)(=O)=O)c1` [Compound 1596]: the IC50 by setting is: under setting [1], 200 to 500 nM; under setting [2], 200 to 500 nM.

Consider `CS(=O)(=O)c1cccc(NC(=O)c2cc(C(F)(F)F)cnc2Oc2ccn3ccnc3c2)c1` [Compound 1597], for which the IC50 lay within 200 to 500 nM under setting [1] and 200 to 500 nM under setting [2].

For `CS(=O)(=O)c1cccc(NC(=O)c2cc(C(F)(F)F)cnc2Oc2ccc3c(c2)CC(=O)N3)c1` [Compound 1598], the IC50 lay in the range of 200 to 500 nM under setting [1] and 200 to 500 nM under setting [2].

Consider `CS(=O)(=O)c1cccc(NC(=O)c2cc(C(F)(F)F)cnc2Oc2cccn3ccnc23)c1` [Compound 1599], for which the IC50 is, setting by setting: under setting [1], 200 to 500 nM; under setting [2], 200 to 500 nM.

Consider `CCOc1ncc(C(F)(F)F)cc1C(=O)Nc1cccc(S(C)(=O)=O)c1` [Compound 1600], for which the IC50 by setting is: under setting [1], 200 to 500 nM; under setting [2], 200 to 500 nM.

As to `CS(=O)(=O)c1cccc(NC(=O)c2cc(C(F)(F)F)cnc2Oc2ccc3c(c2)NC(=O)C3)c1` [Compound 1601], the IC50 fell in the range of 200 to 500 nM under setting [1] and 200 to 500 nM under setting [2].

Take `CS(=O)(=O)c1cccc(NC(=O)c2cc(C(F)(F)F)cnc2OCC2CC2)c1` [Compound 1602]: the IC50 by setting is: under setting [1], 200 to 500 nM; under setting [2], 200 to 500 nM.

Turning to `COc1nc(Br)ccc1Oc1ncc(C(F)(F)F)cc1C(=O)Nc1cccc(S(C)(=O)=O)c1` [Compound 1603], the IC50 was at most 20 nM under setting [1] and at most 20 nM under setting [2].

As to `CS(=O)(=O)c1cccc(NC(=O)c2cc(C(F)(F)F)cnc2OCCC(F)(F)F)c1` [Compound 1604], the IC50 is 200 to 500 nM under setting [1] and 40 to 200 nM under setting [2].

Regarding `CS(=O)(=O)c1cccc(NC(=O)c2cc(C(F)(F)F)cnc2OCC2CCC2(F)F)c1` (centres unmarked) [Compound 1605], the IC50 lay within 200 to 500 nM under setting [1] and 200 to 500 nM under setting [2].

With `CS(=O)(=O)c1cccc(NC(=O)c2cc(C(F)(F)F)cnc2OC2CCC(=O)NC2)c1` (centres unmarked) [Compound 1606], the IC50 is, setting by setting: under setting [1], 200 to 500 nM; under setting [2], 200 to 500 nM.

Turning to `COc1nc(C)ccc1Oc1ncc(C(F)(F)F)cc1C(=O)Nc1cccc(S(C)(=O)=O)c1` [Compound 1608], the IC50 by setting is: under setting [1], at most 20 nM; under setting [2], at most 20 nM.

Regarding `CCOc1ccc(Oc2ncc(C(F)(F)F)cc2C(=O)Nc2cccc(S(C)(=N)=O)c2)cc1` (centres unmarked) [Compound 1609], the IC50 fell in the range of 40 to 200 nM under setting [1] and 40 to 200 nM under setting [2].

In the case of `Cn1cc(Oc2ncc(C(F)(F)F)cc2C(=O)Nc2cccc(S(C)(=O)=O)c2)cn1` [Compound 1610], the IC50 under setting [1] lay in the range of 200 to 500 nM and the IC50 under setting [2] was 200 to 500 nM.

For the molecule `Cc1nn(C)c(C)c1Oc1ncc(C(F)(F)F)cc1C(=O)Nc1cccc(S(C)(=O)=O)c1` [Compound 1611], the IC50 runs as follows: under setting [1], 200 to 500 nM; under setting [2], 200 to 500 nM.

Consider `COc1cc(F)c(F)cc1Oc1ncc(C(F)(F)F)cc1C(=O)Nc1cccc(S(C)(=O)=O)c1` [Compound 1615], for which the IC50 under setting [1] is at most 20 nM and the IC50 under setting [2] is at most 20 nM.

Regarding `Cc1cc(C(F)(F)F)c(C)cc1Oc1ncc(C(F)(F)F)cc1C(=O)Nc1cccc(S(C)(=O)=O)c1` [Compound 1616], the IC50 lay in the range of 200 to 500 nM under setting [1] and 200 to 500 nM under setting [2].
